Like-named read-outs stand apart in the source and are kept apart here.
Assays:
[1] = partly stated as estimated; cited from earlier work
[2] = cited from earlier work
[3] = cited from earlier work; remark: listed apart in the source
[4] = Leakage of drug from loaded liposomes, Examples 5 to 8 (method not named); conditions: for leakage of chloroquine from liposomes loaded using this base, compared among three loading bases: adenine triflate, aniline triflate, pyridinium sulfate
[5] = administered orally; cited from earlier work
[6] = Liposome leakage, dialysis method; conditions: for pyridine leakage from the liposomes: slower after 3 days
Procedure: A 0.5-mL aliquot of liposome suspension was placed in a section of dialysis tubing tied at one end. The tubing was tied at the other end to form a sealed bag. The bag was placed in 4.5 mL of isotonic NaCl saline solution and placed on an orbital shaker. At specific time points, the dialysis bags were exchanged into fresh isotonic NaCl and the drug and loading base were quantified spectophotometrically in the external dialysis solutions.

[7] = Liposome leakage, sedimentation method; format: physicochemical
Procedure: Liposome Leakage, Sedimentation Method. Liposome samples were diluted to 3-5 mL and left on an orbital shaker at 22° C. At specific time points, the liposomes were sedimented in a centrifuge at 300×g for 5 minutes and an aliquot of the clear supernatant was analyzed spectrophotometrically for drug and loading base content. After measurement, the solution was returned to the liposome suspension, which was vortexed and returned to the orbital shaker.
Then, 400 microliters of a pyridinium salt solution (prewarmed to 58° C.) were added to the lipid suspension. The mixture was kept at 58° C. for 5 minutes and then 100 microliters of the pyridinium salt solution were added. […] A total of three washes were performed. […] The samples were subsequently monitored for release of naltrexone using the sedimentation method. Two trials were performed for each condition.

[8] = cited from earlier work; remark: listed apart in the source
[9] = liposomes loaded with this pyridinium salt
[10] = 1.5 M pyridinium sulfate liposomes

Q: With `N` [ammonia, reference compound] as the compound, how does the “log P” value [1] read?
A: approximately −0.3

Q: Which “log P” value [1] does the source give for `COc1ccccn1` [2-methoxypyridine] here?
A: approximately 1.3

Q: What about the “solubility in water” value [2] of the same compound?
A: limited solubility in water

Q: What does the source list for `Nc1ncnc2nc[nH]c12` [adenine, 6-aminopurine]?
A: pKa [3]: 4.15; solubility in water [2]: very limited solubility in water; leakage of chloroquine from liposomes loaded using this base, compared among three loading bases [4]: least rapid

Q: What does the source list for `NC(=O)c1cccnc1` [nicotinamide]?
A: pKa [3]: 3.25; oral dose with no toxic effects (as high as) [5]: ≤ 3 gm/day; concentration of solutions of the salt with most strong acids (as concentrated as) ([2]; pH 2-3 and room temperature): ≤ 4 M

Q: For `CCN(CC)CCCC(C)Nc1ccnc2cc(Cl)ccc12` (stereo not drawn) [chloroquine, reference compound], which “leakage of loaded drug in the first 24 hours” value ([6]; 0.133 M ammonium sulfate gradient liposomes (comparison)) is on record?
A: 18%

Q: And the “leakage after 400 hours” value ([4]; DPPC:cholesterol liposomes loaded with a sulfate salt of pyridine)?
A: 4-8%

Q: And the “leakage after 400 hours” value ([4]; loaded with the eprodisate salts of both pyridine and 2-methoxypyridine)?
A: ≤ 1%

Q: Which results are given for `c1ccnnc1` [pyridazine]?
A: log P [1]: approximately −0.7; solubility in water [2]: miscible with water at all ratios

Q: For `c1ccncc1` [pyridine], which “pyridine leakage from the liposomes” value ([6]; 0.5 M pyridinium sulfate liposomes loaded with 2.5 or 5 μmol chloroquine) is on record?
A: initially very rapid

Q: And the “pyridine loss from liposomes” value ([6]; 0.5 M pyridinium sulfate liposomes loaded with 10 or 20 μmol chloroquine)?
A: minimal

Q: And the “pyridine leakage from the liposomes” value ([6]; 1 M pyridinium chloride liposomes loaded with 2.5 or 5 μmol chloroquine)?
A: initially very rapid

Q: And the “pyridine loss from liposomes” value ([6]; 1 M pyridinium chloride liposomes loaded with 10 or 20 μmol chloroquine)?
A: minimal

Q: With `Cl.c1ccncc1` [Chloride, pyridinium chloride] as the compound, how does the “release of naltrexone in about 300 hours” value [7] read?
A: 20%

Q: With `O=[N+]([O-])O` [Nitrate] as the compound, how does the “release of naltrexone in 500 hours” value [7] read?
A: over 70%

Q: What about the “release of naltrexone in 860 hours” value [7] of the same compound?
A: 90%

Q: Which “log P” value [1] does the source give for `CCC(C)O` (stereo not drawn) [Example 2-butanol, 2-butanol] here?
A: 0.683

Q: Which “release of naltrexone in 900 hours” value [7, 9] does the source give for `O=S(=O)(O)CCCS(=O)(=O)O.c1ccncc1.c1ccncc1` [pyridinium eprodisate] here?
A: ~5%

Q: With `Nc1ccccc1` [aniline] as the compound, how does the “leakage of chloroquine from liposomes loaded using this base, compared among three loading bases” value [4] read?
A: most rapid

Q: For `C1=Cc2cccc(OC[C@H]3CNCCO3)c2C1.O=S(=O)(O)c1ccccc1` [Benzenesulfonate], which “naltrexone release rate compared with sulfate and eprodisate salts” value [7] is on record?
A: higher release rates

Q: For Methanesulfonate, which “naltrexone release rate compared with sulfate and eprodisate salts” value [7, 9] is on record?
A: higher release rates

Q: For `O=C1CC[C@@]2(O)[C@H]3Cc4ccc(O)c5c4[C@@]2(CCN3CC2CC2)[C@H]1O5` [naltrexone, reference compound], which “initial release at 24 hours” value [7, 10] is on record?
A: approximately 4%

Q: What about the “liposome contents released in 672 hours” value [7, 10] of the same compound?
A: 20%

Q: And the release rate ([7]; 1.5 M pyridinium sulfate liposomes, over 672 hours)?
A: less than 1 % per day

Q: What about the pKa [3] of the same compound?
A: 7.3

Q: What about the “log P” value [1] of the same compound?
A: 1.3

Q: What does the source list for `CN1CC[C@]23c4c5ccc(O)c4O[C@H]2C(=O)CC[C@@]3(O)[C@H]1C5` [oxymorphone]?
A: release time ([8]; animal studies, egg phosphatidylcholine and cholesterol vesicles): approximately 24 hours; release time ([8]; dipalmitoylphosphatidylcholine and cholesterol vesicles): approximately 72 hours
